Experiments:
Assay in all cases: relative viability (nuclei count vs DMSO), 5 days (fraction); higher = more cells survive
[1] = compound: CC(C)C[C@H](NC(=O)[C@H](Cc1ccccc1)NC(=O)c1cnccn1)B(O)O [Bortezomib] + COc1cc2c(Oc3ccc(NC(=O)C4(C(=O)Nc5ccc(F)cc5)CC4)cc3F)ccnc2cc1OCCCN1CCOCC1 [Foretinib] (partner 0.25 µM)
In short: (§1)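 Nuclei were stained with Hoechst during a one-step fixation (final 0.05% Triton X-100, 1% formaldehyde, 1 ug/ml Hoechst) carried out 5 days after dosing, then counted on 4× images. The cells, lung cancer lines in 1536-well plates, had been dosed by pin tool the day after seeding with one drug alone or a fixed anchor-drug dose plus five library-drug doses (not always all listed) in √10 steps. Relative viability is the nuclei count in treated wells divided by that in vehicle wells, and each value is the median of duplicate plates.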

[2] = compound: CC1=CC(=NN1)NC2=CC(=NC(=N2)/C=C/C3=CC=CC=C3)N4CCN(CC4)C + CC1(C)CCC(c2ccc(Cl)cc2)=C(CN2CCN(c3ccc(C(=O)NS(=O)(=O)c4ccc(N[C@H](CCN5CCOCC5)CSc5ccccc5)c(S(=O)(=O)C(F)(F)F)c4)cc3)CC2)C1 [Navitoclax] (partner 0.5 µM)
In short: as §1

[3] = compound: COC1=CC(c2cc3ccccc3[nH]2)=N/C1=C\c1[nH]c(C)cc1C [Obatoclax] + O=C(CCCCCCC(=O)Nc1ccccc1)NO [Vorinostat] (partner 1 µM)
In short: as §1

[4] = compound: CC1=CC(=NN1)NC2=CC(=NC(=N2)/C=C/C3=CC=CC=C3)N4CCN(CC4)C + COc1cc2c(Oc3ccc(NC(=O)C4(C(=O)Nc5ccc(F)cc5)CC4)cc3F)ccnc2cc1OCCCN1CCOCC1 [Foretinib] (partner 0.25 µM)
In short: as §1

| Cell Line | relative viability ([1]; first compound 0.0002 µM) | relative viability ([1]; first compound 0.000632 µM) | relative viability ([1]; first compound 0.002 µM) | relative viability ([1]; first compound 0.006325 µM) | relative viability ([1]; first compound 0.02 µM) | relative viability ([2]; first compound 0.08 µM) | relative viability ([2]; first compound 0.253 µM) | relative viability ([2]; first compound 0.8 µM) | relative viability ([2]; first compound 2.53 µM) | relative viability ([2]; first compound 8 µM) | relative viability ([3]; first compound 0.01 µM) | relative viability ([3]; first compound 0.03162 µM) | relative viability ([3]; first compound 0.1 µM) | relative viability ([3]; first compound 0.3162 µM) | relative viability ([3]; first compound 1 µM) | relative viability ([4]; first compound 0.08 µM) | relative viability ([4]; first compound 0.253 µM) | relative viability ([4]; first compound 0.8 µM) | relative viability ([4]; first compound 2.53 µM) | relative viability ([4]; first compound 8 µM) |
| --- | --- | --- | --- | --- | --- | --- | --- | --- | --- | --- | --- | --- | --- | --- | --- | --- | --- | --- | --- | --- |
| NCI-H2023 | 0.911 | 0.802 | 1.06 | 0.282 | 0.0757 | 0.952 | 1.09 | 0.874 | 0.387 | 0.069 | 0.489 | 0.613 | 0.632 | 0.553 | 0.376 | 0.719 | 0.974 | 0.832 | 0.362 | 0.0501 |
| NCI-H2085 | 1.04 | 1.08 | 1.05 | 0.273 | 0.199 | 1.24 | 1.19 | 0.994 | 0.489 | 0.315 | 0.748 | 0.776 | 0.669 | 0.787 | 0.342 | 0.972 | 1.04 | 0.842 | 0.552 | 0.227 |
| NCI-H2087 | 0.972 | 0.975 | 0.794 | 0.0688 | 0.059 | 0.974 | 0.923 | 1.11 | 0.247 | 0.122 | 0.61 | 0.81 | 0.931 | 0.671 | 0.723 | 1.05 | 1.14 | 1.02 | 0.336 | 0.111 |
| NCI-H2126 | 1.08 | 1.03 | 1.12 | 1.02 | 0.21 | 0.839 | 0.871 | 0.806 | 0.772 | 0.478 | 0.748 | 0.688 | 0.993 | 0.807 | 0.792 | 1.06 | 1.09 | 1.19 | 1.03 | 0.587 |
| NCI-H2170 | 1.02 | 0.952 | 1.03 | 0.596 | 0.167 | 0.588 | 0.574 | 0.619 | 0.248 | 0.159 | 0.698 | 0.88 | 0.742 | 0.799 | 0.782 | 1.02 | 0.981 | 0.95 | 0.774 | 0.183 |
| NCI-H2228 | 0.957 | 0.962 | 0.595 | 0.0857 | 0.0911 | 1.11 | 0.893 | 0.747 | 0.0829 | 0.0768 | 0.564 | 0.83 | 0.859 | 0.654 | 0.164 | 0.692 | 0.953 | 0.618 | 0.102 | 0.0419 |
| NCI-H2347 | 0.741 | 1.3 | 1.09 | 0.275 | 0.327 | 0.762 | 0.871 | 0.912 | 0.496 | 0.361 | 0.633 | 0.71 | 0.514 | 0.54 | 0.465 | 0.554 | 1.44 | 1.21 | 0.857 | 0.325 |
| NCI-H2405 | 1.02 | 1.05 | 0.86 | 0.271 | 0.188 | 0.884 | 0.688 | 1.13 | 0.511 | 0.0864 | 1.05 | 1 |  | 0.984 | 0.981 | 1.05 | 1.07 | 1.07 | 0.878 | 0.229 |
| NCI-H3122 | 0.889 | 0.882 | 0.994 | 0.693 | 0.0999 | 1 | 0.996 | 0.991 | 0.918 | 0.896 | 0.981 | 0.783 | 1.03 | 0.991 | 1.07 | 0.957 | 0.928 | 0.965 | 0.873 | 0.383 |
| PC-3 [JPC-3] | 1.04 | 1.05 | 0.346 | 0.163 | 0.121 | 0.769 | 0.81 | 0.762 | 0.62 | 0.389 | 0.835 | 0.555 | 0.767 | 0.527 | 0.439 | 1.01 | 1.1 | 1.02 | 0.87 | 0.493 |
| PC-14 | 1.04 | 1.03 | 1.02 | 0.588 | 0.159 | 0.974 | 1.01 | 0.928 | 0.324 | 0.0445 | 0.625 | 0.736 | 0.696 | 0.341 | 0.0549 | 0.974 | 1.09 | 0.534 | 0.869 | 0.398 |
| RERF-LC-KJ | 0.944 | 0.886 | 0.929 | 0.761 | 0.221 | 1.05 | 1.01 | 0.764 | 0.361 | 0.189 | 0.649 | 0.791 | 0.709 | 0.595 | 0.474 | 0.846 | 0.93 | 0.824 | 0.744 | 0.586 |
| SK-LU-1 | 0.742 | 0.86 | 0.67 | 0.128 | 0.112 | 0.792 | 0.905 | 0.786 | 0.385 | 0.0813 | 0.833 | 0.827 | 0.723 | 0.671 | 0.441 | 0.756 | 0.821 | 0.671 | 0.177 | 0.0847 |
| SK-MES-1 | 1.01 | 0.946 | 0.967 | 0.632 | 0.241 | 1.11 | 1.21 | 1.15 | 0.479 | 0.116 | 1.06 | 1.11 | 0.905 | 0.907 | 0.301 | 0.896 | 0.858 | 0.864 | 0.653 | 0.352 |
| SW 1573 | 0.943 | 0.907 | 1.02 | 0.327 | 0.0926 | 0.98 | 1.06 | 0.772 | 0.227 | 0.0461 | 0.791 | 1.04 | 0.792 | 0.429 | 0.169 | 0.847 | 0.993 | 1.1 | 0.536 | 0.151 |
| UMC-11 | 0.801 | 0.97 | 0.96 | 0.449 | 0.175 | 0.317 | 0.312 | 0.177 | 0.116 | 0.0909 | 0.39 | 0.439 | 0.375 | 0.407 | 0.288 | 1.06 | 0.908 | 0.466 | 0.17 | 0.13 |

— the supplement of paper PMC10307832
